Assay results from patent US20110098492A1, “CLEANING COMPOSITIONS CONTAINING MID-RANGE ALKOXYLATES” (priority 2008, published 2011).

Legend:
[1] = Cleaning of cross-linked triglycerides (Gardner scrubber, soiled vinyl tile); set-up: key to Arbitrary Gray Value: mean gray value of tile image (ImageJ); details: 120 back-and-forth strokes, higher = better cleaning
Description: Test panels coated with mixtures of triglycerides and cross-linked triglycerides were prepared and evaluated using the following procedure. Cobalt Naphthenate was used as a catalyst to accelerate the oxidation of vegetable oil to give a hard varnish. Carbon black is added to the varnish to enable easy visual comparison of the ability to clean the cross-linked triglyceride from the surface.
Substrate Panels: White Vinyl Floor Tile: Tarket Corporation Azrock™ VS304-3 (6913) cut to 4¼×4¼ inch (to fit the Gardner Linear Motion Scrubber).
Soil Formulation: 100 grams Canola Oil (Food Grade, 100%, Kroger Co. Cincinnati, Ohio 45202); 2 grams Acetylene Carbon Black (Cat #39724, Alfa Aesar; Surface area=74 sq m/g); 20 grams drying agent: Cobalt Naphthenate Solution (Aldrich Cat #54,457-4, CAS #61789-51-3) (Comes as a 6% solution in petroleum solvent); Oven: Convection oven set at 160° F.
Scrubbing Tester: Gardco washability & Wear Tester; Linear Motion Test Equipment; Model D12-V Cat #WA-2164 (Paul N. Gardner Company, Inc. 316 N.E. First Street, Pompano, Beach, Fla. 33060.
Sponges: “Do-It” Cellulose Sponge, 1⅝ in thick, cut to 3″×4″. Manufactured by Bloch/New England for HWI, Fort Wayne, Ind. 46801;
Paint Brushes: Economy Chip Brush 1 Inch. www.lgsourcing.com Model #0106; Item #103407 obtained from Lowes, Inc. L. G. Sourcing, Inc. P.O. Box 1535 North Wilkseboro, N.C. 28659
Reflectance Meter: HunterLab ColorQuest XE
Prepare a stock solution by mixing 98 grams of canola oil (food grade) with 2.0 g acetylene-based carbon black (Cat #39724, Alfa Aesar; Surface area=74 sq m/g). Mix with a disperser at 2000 rpm for 15 min. (We used a Caframo Model BDC 3030 with a 0.50 dispersing blade).
Add 20.0 grams Cobalt Naphthenate Solution and mix well (by hand, using a glass stir rod).
Place 1.6 grams soil per 4×4 inch tile.
Paint to a thin film using a clean 1-inch economy brush. Use several strokes to get to an even coating. Use a clean, dry brush for each application. (After the application, each brush can be cleaned with acetone, dried, and then re-used).
Place in a convection oven set at 160 F for 16 hours. We place the panels in an oven at 4:00 p.m, and then remove the panels at 8:00 a.m. the next morning. Let the panels cool for 1 hour.
Use the panels within 10 days
Place a panel in the Gardner Scrubber
[…] (We use 5.0 grams surfactant diluted to 500 mL water).
Prepare a sponge by rinsing several times in cold tap water. Completely squeeze out the sponge by hand.
After each test, rinse out the sponge 15-20 times (by repeated sorption and squeezing) until there is no noticeable surfactant solution left (usually indicated by a lack of foam).
Pour 500 mL of surfactant solution into a beaker
Place the sponge into the beaker—allowing it to soak up as much surfactant as possible.
Place the sponge into the Gardner Scrubber.
Pour the remaining liquid (approx 400 mL) over the test panel in the scrubber. There should be enough liquid to just cover the test panel.
Program the scrubber to perform 120 back-and-forth strokes (for a total of 240 linear strokes). We define each back-and-forth stroke as “1 stroke”
Remove the panel rinse with tap water
Clean the Gardner scrubber by rinsing with tap water.
Clean the sponge by squeezing it out under tap water 20-30 times until clean.
Remove excess water from the sponge by squeezing as much liquid out as possible.
After the panel is dry, either take pictures (for visual comparison of cleaning) or measure the reflectance using the Xyy mode of a Hunter Colorimeter. Alternatively, the mean gray value can be obtained by taking a picture of the tiles and processing computer image with ImageJ™ software, which is distributed freely by the National Institute of Health (nih.gov).

[2] = Cleaning of cross-linked petroleum grease (1-octadecene soil); details: 1% by weight in water; cross-linked 1-octadecene soil
From the text: The same procedure used above for cross-linked triglycerides was used, except that 1-octadecene was used instead of Canola Oil.

[3] = Formula stability with LAS, sodium citrate and water; assay type: physicochemical; set-up: key to Formula stability: S = Stable; U = Unstable
From the text: When mixed with dodecyl benzene sulfonic acid (sodium salt), and sodium citrate in water, the surfactants of the present invention show enhanced formula stability relative to conventional surfactants.

[4] = Pour point test (ASTM D97); assay type: physicochemical
Description: C) Pour Point Test: This test is carried out according to the protocol of ASTM Test D97.

[5] = Gel range in water at 23 C; assay type: physicochemical; set-up: key: L = Liquid; G = Gel; TL = Thick Liquid
Description: One way the industry expresses a tendency of a surfactant to cause gels is a “gel range.” A typical gel range describes a percentage of samples that form gels, out of a number of samples, each having increasing surfactant concentration. […] A sample forms a gel when it is non-pourable for at least five seconds at 23° centigrade (° C.) when its container is inverted 180° so the container's open spout or mouth faces down. For many applications, a surfactant ideally has no gel range.
D) Gel range: Ten surfactant solutions are made using 0%, 10%, 20%, 30%, 40%, 50%, 60%, 70%, 80%, 90% water. […] The test is run at 23 C.

[6] = Ross-Miles foam height test (ASTM D1173); assay type: physicochemical
Description: A) Ross-Miles Foam Height Test: This test is carried out according to the protocol of ASTM […].

[7] = background statement on commercial surfactants; cited from earlier work

Formula stability ([3]; 15% LAS/0% Na Cit in water): U
Formula stability ([3]; 15% LAS/1% Na Cit in water): U
Formula stability ([3]; 15% LAS/2% Na Cit in water): U
Formula stability ([3]; 15% LAS/4% Na Cit in water): U
Pour Point [4]: 30 ° F.
Gel Range, Percent Surfactant in Water at 23 C. ([5]; 10% surfactant in water): L
Gel Range, Percent Surfactant in Water at 23 C. ([5]; 20% surfactant in water): L
Gel Range, Percent Surfactant in Water at 23 C. ([5]; 30% surfactant in water): L
Gel Range, Percent Surfactant in Water at 23 C. ([5]; 40% surfactant in water): L
Gel Range, Percent Surfactant in Water at 23 C. ([5]; 50% surfactant in water): L
Gel Range, Percent Surfactant in Water at 23 C. ([5]; 60% surfactant in water): G
Gel Range, Percent Surfactant in Water at 23 C. ([5]; 70% surfactant in water): G
Gel Range, Percent Surfactant in Water at 23 C. ([5]; 80% surfactant in water): G
Gel Range, Percent Surfactant in Water at 23 C. ([5]; 90% surfactant in water): L
Ross Miles Foam Height, millimeters, 5 Minutes ([6]; 5 Minutes): 35 millimeters
Ross Miles Foam Height, millimeters, Initial ([6]; Initial (0 sec)): 145 millimeters
Substance: nonylphenoxy (polyoxyethylene-9) [NP-9, reference compound]
Arbitrary Gray Value ([1]; 0.5% by weight in water): 108
Arbitrary Gray Value ([1]; 1% by weight in water): 177
Arbitrary Gray Value [2]: 95
gel formation / gel range when mixed with water (in words) [7]: forms resilient, slow-dissolving gels
